Data as given in publication PMC5820243, “Two inhibitors of yeast plasma membrane ATPase 1 (ScPma1p): toward the development of novel antifungal therapies” (Journal of Cheminformatics, 2018).

Target: T1, ScPma1p (yeast plasma membrane ATPase 1) (Saccharomyces cerevisiae, UniProt P05030)
T1 construct: gene PMA1
Assay: cell-free vesicle-based ATP hydrolysis assay (ScPma1p-overexpressing vesicles, phosphate release)
Type: biochemical

T1 sequence (P05030 whole entry): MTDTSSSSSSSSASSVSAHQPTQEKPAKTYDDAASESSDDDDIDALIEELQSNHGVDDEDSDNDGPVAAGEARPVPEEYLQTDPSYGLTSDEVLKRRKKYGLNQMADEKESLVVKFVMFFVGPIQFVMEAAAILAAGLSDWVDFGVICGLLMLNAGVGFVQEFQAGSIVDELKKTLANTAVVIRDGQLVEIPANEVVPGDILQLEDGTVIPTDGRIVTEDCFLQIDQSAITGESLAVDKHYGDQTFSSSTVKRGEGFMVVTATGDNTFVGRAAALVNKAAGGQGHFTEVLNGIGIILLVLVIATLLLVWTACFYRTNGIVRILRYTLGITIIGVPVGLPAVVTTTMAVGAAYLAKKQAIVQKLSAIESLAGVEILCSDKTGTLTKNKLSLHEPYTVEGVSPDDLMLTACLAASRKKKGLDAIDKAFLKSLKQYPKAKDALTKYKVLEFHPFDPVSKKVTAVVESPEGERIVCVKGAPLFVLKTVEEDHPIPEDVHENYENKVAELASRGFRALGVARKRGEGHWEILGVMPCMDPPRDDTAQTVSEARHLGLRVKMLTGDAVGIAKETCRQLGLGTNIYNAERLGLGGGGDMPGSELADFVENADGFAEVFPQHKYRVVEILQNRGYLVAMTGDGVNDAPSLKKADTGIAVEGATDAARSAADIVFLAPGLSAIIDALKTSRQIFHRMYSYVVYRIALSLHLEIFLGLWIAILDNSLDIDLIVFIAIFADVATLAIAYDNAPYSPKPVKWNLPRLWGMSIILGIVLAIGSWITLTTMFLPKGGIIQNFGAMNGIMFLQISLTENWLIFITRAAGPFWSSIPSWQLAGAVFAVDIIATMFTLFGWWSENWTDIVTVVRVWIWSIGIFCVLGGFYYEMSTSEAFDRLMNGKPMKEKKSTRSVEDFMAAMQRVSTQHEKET

- IC50: 4.4 µM
SMILES: Cn1ncc2c(Nc3cccc(Cl)c3)nc(Nc3cccc(Cl)c3)nc21 [NSC11668, 4-N,6-N-bis(3-chlorophenyl)-1-methylpyrazolo[3,4-d]pyrimidine-4,6-diamine]
